Test results reported in US10188634B2, “3-(3H-imidazo[4,5-C]pyridin-2-yl)-1 H-pyrazolo[4,3-B]pyridines and therapeutic uses thereof” (Samumed, LLC, priority 2015, dated 2019).

How the values were obtained:
[1] = test system: Wnt activity (Sp5-Luc reporter, human Sp5 promoter with eight TCF/LEF binding sites) in SW480 colon carcinoma cells; assay: Screening assay for Wnt activity: Sp5-Luc reporter gene assay in SW480 cells; type: cell-based; details: for inhibition at 10 µM: read-out: percent inhibition at 10 μM (given for EC50 of >10 μM); for EC50: 10-point dose-response starting from 10 μM, overnight incubation
Procedure, shortened: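 SW480 cells stably carrying Sp5-Luc reporter (eight TCF/LEF sites) plated at 4,000/well in 1% FBS medium with compound (10-point 1:3 series from 10 μM, 0.1% DMSO) overnight at 37 °C. BrightGlo luminescence normalized to DMSO; EC50 by four-parameter fit, else % inhibition at 10 μM.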

[2] = test system: IL-6 in THP-1 cells; assay: Inhibition of IL-6 in LPS-stimulated THP-1 human monocyte cells (HTRF); type: cell-based; details: IL-6 HTRF; for EC50: 500 ng/mL LPS, 22 hours; for inhibition at 10 µM: LPS, read-out: percent inhibition in brackets (given for EC50 >10 μM)
Procedure, shortened: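 THP-1 cells, serum-reduced (1% FBS) for 24 h, were exposed to compound (1:3, 10-point series from 10 μM; 0.1% DMSO) for 2 h, then 500 ng/mL LPS for 22 h at 37° C. Secreted IL-6 measured by HTRF (665/620 ratio), normalised to DMSO; EC50 by four-parameter fit, else % inhibition at 10 μM.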

Compound | inhibition at 10 µM [1] | EC50 [1] | EC50 [2] | inhibition at 10 µM [2]
NC1CN(c2cncc(-c3ccc4[nH]nc(-c5nc6c(-c7ccc(Cl)s7)cncc6[nH]5)c4n3)n2)C1 [Compound 1023, 1-(6-(3-(7-(5-Chlorothiophen-2-yl)-3H-imidazo[4,5-c]pyridin-2-yl)-1H-pyrazolo[4,3-b]pyridin-5-yl)pyrazin-2-yl)azetidin-3-amine] | 24.3% | > 10 µM | 0.098 µM | 
c1cc2c(cc1-c1cncc3[nH]c(-c4n[nH]c5ccc(C6CCNCC6)nc45)nc13)OCO2 [Compound 1063, 3-(7-(Benzo[d][1,3]dioxol-5-yl)-3H-imidazo[4,5-c]pyridin-2-yl)-5-(piperidin-4-yl)-1H-pyrazolo[4,3-b]pyridine] | 10.5% | > 10 µM | > 10 µM | 32.7%
C1=C(c2ccc3[nH]nc(-c4nc5c(-c6ccc7c(c6)OCO7)cncc5[nH]4)c3n2)CCNC1 [Compound 1064, 3-(7-(Benzo[d][1,3]dioxol-5-yl)-3H-imidazo[4,5-c]pyridin-2-yl)-5-(1,2,3,6-tetrahydropyridin-4-yl)-1H-pyrazolo[4,3-b]pyridine] | 9.5% | > 10 µM | > 10 µM | 21.1%
Cc1ncc(-c2ccc3[nH]nc(-c4nc5c(-c6cccc(F)c6)cncc5[nH]4)c3n2)s1 [Compound 1081, 5-(3-(7-(3-Fluorophenyl)-3H-imidazo[4,5-c]pyridin-2-yl)-1H-pyrazolo[4,3-b]pyridin-5-yl)-2-methylthiazole] | 38% | > 10 µM | > 10 µM | 7.7%
Cc1cnc(-c2ccc3[nH]nc(-c4nc5c(-c6cccc(F)c6)cncc5[nH]4)c3n2)s1 [Compound 1082, 2-(3-(7-(3-Fluorophenyl)-3H-imidazo[4,5-c]pyridin-2-yl)-1H-pyrazolo[4,3-b]pyridin-5-yl)-5-methylthiazole] | 27% | > 10 µM | > 10 µM | 14.3%
Cn1cc(-c2ccc3[nH]nc(-c4nc5c(-c6ccc(F)cc6)cncc5[nH]4)c3n2)c(CO)n1 [Compound 1084, (4-(3-(7-(4-Fluorophenyl)-3H-imidazo[4,5-c]pyridin-2-yl)-1H-pyrazolo[4,3-b]pyridin-5-yl)-1-methyl-1H-pyrazol-3-yl)methanol] | 11.8% | > 10 µM | > 10 µM | 4.1%
Cn1cc(-c2ccc3[nH]nc(-c4nc5c(N6CCCCC6)cncc5[nH]4)c3n2)c(CO)n1 [Compound 1089, (1-Methyl-4-(3-(7-(piperidin-1-yl)-3H-imidazo[4,5-c]pyridin-2-yl)-1H-pyrazolo[4,3-b]pyridin-5-yl)-1H-pyrazol-3-yl)methanol] | 24.2% | > 10 µM | 0.52 µM | 
Cn1cc(-c2ccc3[nH]nc(-c4nc5c(-c6ccc7c(c6)OCO7)cncc5[nH]4)c3n2)c(CO)n1 [Compound 1106, (4-(3-(7-(Benzo[d][1,3]dioxol-5-yl)-3H-imidazo[4,5-c]pyridin-2-yl)-1H-pyrazolo[4,3-b]pyridin-5-yl)-1-methyl-1H-pyrazol-3-yl)methanol] | 24.7% | > 10 µM | > 10 µM | 0%
